Like-named read-outs stand apart in the source and are kept apart here.
Tests used:
[1] = test system: neuronal uptake of norepinephrine (NE); experiment: Noradrenaline uptake inhibition, in vitro rat brain; format: biochemical; details: for IC50: read-out: Noradrenalin uptake IC50
Source text: The inhibition of neuronal uptake of monoamines (norepinephrine; NE) was investigated in in vitro rat brain binding experiments.

[2] = test system: neuronal uptake of Serotonin (5-HT); format: biochemical; details: rat brain
Source text: The inhibition of neuronal uptake of Serotonin (5-HT) was investigated in in vitro rat brain binding experiments.

[3] = test system: mice phenylquinone writhing; experiment: Phenylquinone writhing test; format: in vivo
Protocol: Analgesia was tested in vivo in the mice phenylquinone writhing test. M5 was intravenously administered.

mice tail-flick = experiment: Tail-flick test; details: for Tail-Flick, mouse ED50 i.c.v. / Tail-Flick, mouse ED50 i.v. / Analgesia in tail-flick test, in words: mouse
Protocol: Analgesia was tested in vivo in the mice tail-flick test. M5 was first intravenously administered and then directly into a brain ventricle.

μ-opioid receptor = biological target: T1, μ-opioid receptor (Rattus norvegicus, UniProt P33535); experiment: μ-opioid (Naloxon) binding, in vitro rat brain
T1 construct: from tissue; host or cells: rat brain
Source text: The μ-opioid receptor binding was investigated in in vitro rat brain binding experiments using naloxone.

[4] = rat brain, naloxone, read-out: Naloxone binding IC50

T1 sequence (P33535 whole entry): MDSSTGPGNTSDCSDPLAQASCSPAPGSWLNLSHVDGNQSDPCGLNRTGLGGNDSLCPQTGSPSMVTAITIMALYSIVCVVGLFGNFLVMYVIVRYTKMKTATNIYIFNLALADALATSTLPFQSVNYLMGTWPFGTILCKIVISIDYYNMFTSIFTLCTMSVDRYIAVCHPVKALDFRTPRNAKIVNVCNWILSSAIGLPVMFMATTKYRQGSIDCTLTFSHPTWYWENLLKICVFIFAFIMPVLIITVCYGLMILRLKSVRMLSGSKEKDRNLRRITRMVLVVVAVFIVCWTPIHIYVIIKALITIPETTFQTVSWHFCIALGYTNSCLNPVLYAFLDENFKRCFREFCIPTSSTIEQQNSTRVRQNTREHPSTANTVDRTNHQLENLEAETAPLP

| Compound | IC50 [1] [µM] | IC50 [2] [µM] | Writhing, mouse ED50 i.c.v. [3] [μg/animal] | Writhing, mouse ED50 i.v. [3] | Tail-Flick, mouse ED50 i.c.v. (mice tail-flick) [μg/animal] | Tail-Flick, mouse ED50 i.v. (mice tail-flick) | ED50 ([3]; iv, mouse) [mg/kg] | ED50 (mice tail-flick; Mus musculus, iv, read-out: Tail-Flick, mouse ED50 i.v.) [mg/kg] | IC50 (μ-opioid receptor; [4]) [µM] | IC50 (μ-opioid receptor) [µM] | μ-opioid receptor affinity (naloxone binding), in words (μ-opioid receptor; rat brain) | Inhibition of norepinephrine uptake, in words [1] | Inhibition of serotonin uptake, in words [2] | Analgesia in writhing test, in words ([3]; mouse, intravenous administration) | Penetration of the blood brain barrier, in words (mice tail-flick; concluded from i.v. versus i.c.v. analgesia) | Analgesia in tail-flick test, in words (mice tail-flick; direct administration into a brain ventricle) | Analgesia in tail-flick test, in words (mice tail-flick; intravenously administered) |
| --- | --- | --- | --- | --- | --- | --- | --- | --- | --- | --- | --- | --- | --- | --- | --- | --- | --- |
| CN(C)C[C@H]1CCCC[C@]1(O)c1cccc(O)c1 [M1] | 41.4 | 24.2 | 0.58 | 0.49 mg/kg | 2.1 | 1.90 mg/kg | – | – | – | – | – | – | – | – | – | – | – |
| COc1cccc([C@@]2(O)CCCC[C@@H]2CN(C)C)c1 (racemic) [Tramadol, (1RS, 2RS)-2[(dimethylamino)methyl]-1-(3-methoxyphenyl)-cyclohexanol] | – | – | 67.3 | – | 98.0 | – | 6.93 | 13.6 | – | – | – | – | – | – | – | – | – |
| CNCC1CCCCC1(O)c1cccc(OC)c1 (stereo not drawn) [M2] | 4.27 | 10.4 | – | no effect | – | no effect | – | – | 49.1 | – | – | – | – | – | – | – | – |
| COc1cccc([C@@]2(O)CCCC[C@@H]2CN)c1 [M3] | 47.7 | 48.9 | – | no effect | – | no effect | – | – | 204 | – | – | – | – | – | – | – | – |
| NC[C@H]1CCCC[C@]1(O)c1cccc(O)c1 [M4] | 104 | 375 | – | no effect | – | no effect | – | – | 23.9 | – | – | – | – | – | – | – | – |
| CNCC1CCCCC1(O)c1cccc(O)c1 (stereo not drawn) [M5, O-desmethyl-N-mono-desmethyl-tramadol] | 13.3 | 120 | 4.99 | no effect | 32.4 | no effect | – | – | – | 0.31 | strong enough to induce in vivo analgesia | no pronounced effect | no pronounced effect | no pronounced effect | poor penetration of the blood brain barrier | a pronounced effect was seen | no pronounced effect |

From patent US6593373B2, “Pharmaceutical compositions of O-desmethyl-N-mono-desmethyl-tramadol” (Gruenenthal GmbH, priority 2000, dated 2003)
